In patent US11246893B2, “Bacteriocin production, compositions and methods of use” (ISOThrive Inc., priority 2016, dated 2022):

How the values were obtained:
[1] = test system: Weissella viridescens NRRL B-1951; assay: tube assay, W. viridescens growth with nisin A or Z (absorbance); type: cell-based
Protocol: 100 g De-Man, Rogosa and Sharpe (MRS) media was prepared in a 500 mL Erlenmeyer to contain 5.5% solids in deionized water (18.2 MΩ, Hydro Service and Supplies. Gaithersburg, Md.). The media was autoclaved (121° C. 15 min), cooled, and inoculated with 1 mL (0.5 mL culture+0.5 mL glycerol, 40%; frozen at −78° C.) of Weissella viridescens NRRL B-1951 (test strain). The culture was incubated at 31° C. overnight (15 Hr).
The next day, stock solutions of either nisin A or Z were prepared in deionized water to contain 31.3 and 33.7 μg/g of each peptide.
100 g MRS media was prepared to contain 5.5% solids. Two sets (one set each for nisin A and nisin Z) of eight Hach-type tubes (Kimble Chase 45066-16100) were prepared. Within each set, in order was added 5.00, 4.95, 4.90, 4.75, 4.50, 4.00, 3.50 and 3.00 g MRS media. The tubes were sealed and autoclaved.
To each tube was added, of the appropriate nisin stock, 0.00, 0.05, 0.10, 0.25, 0.50, 1.00, 1.50, and 2.00 g. Each tube was inoculated with 0.25 g of late-log W. viridescens NRRL B-1951 culture. The tubes were sealed and the absorbance at 600 nm was quickly measured (Hach DR900). The tubes were segregated by set and incubated at 31° C. overnight (15 Hr).
Each tube was thoroughly mixed to suspend settled cells and the absorbance was measured again at 600 nm. The final absorbance values for each sample were corrected for their respective background (taken just after inoculation, scattered light from added cells). The corrected absorption values were a measure of W. viridescens growth.
As indicated above, the absorbance of the culture was measured again at 600 nm as a measure of W. viridescens growth, and the absorbance values for each sample were corrected for their respective background. These corrected absorption values plotted against nisin concentration and minimum inhibiting concentration approximated via regression.
The results were fit via four parameter logistic regression (4PLR), combined into a continuous function with a second assay set (0.65-9.99 μg/g), and are shown in FIG. 11A.

[2] = precipitation noted in proliferation assay (FIG. 9E); type: physicochemical
Protocol: As illustrated, nisins can have some uncommon amino acids such as lanthionine (Lan), methyllanthionine (MeLan), didehydroalanine (Dha), and didehydroaminobutyric acid (Dhb). FIG. 9E graphically illustrates inhibition of HCT-15 and DLD-1 colorectal cancer cell proliferation and IC50 values obtained for nisins A and Z. The plot is representative of four triplicate tests including two each for HCT-15 and DLD-1 cells. Note that Nisin A began to precipitate at concentrations >400 μg/mL.

[3] = test system: Weissella viridescens NRRL B-1951; assay: HPLC of tube supernatants: glucose consumption and organic acid production; type: cell-based; settings: for acetic acid in fermentation media: MRS media originally contained 7% acetate
Protocol: Each tube was sampled (1.5 mL conical polypropylene centrifuge tubes) and centrifuged at 10 kRPM for 10 minutes to remove and suspended cells. The resulting supernatants were filtered (0.2 μm nylon), diluted to 0.5% solids, and analyzed by high pressure liquid chromatography (HPLC, Agilent 1100, refractive index detector and BioRad Ainex HPX-87H column) for consumption of glucose and production of organic acids.
Note that the MRS media originally contained 7% acetate; therefore 7% should be subtracted from the values for acetate in Table 8 to ascertain the amount of acetate generated during the assay.

[4] = tube A2, nisin A 0.33 μg/g, 15 Hr
[5] = tube A3, nisin A 0.68 μg/g, 15 Hr
[6] = tube A4, nisin A 1.38 μg/g, 15 Hr
[7] = tube A5, nisin A 3.08 μg/g, 15 Hr
[8] = tube A6, nisin A 5.97 μg/g, 15 Hr
[9] = tube A7, nisin A 8.86 μg/g, 15 Hr
[10] = tube A8, nisin A 11.87 μg/g, 15 Hr

## MSTKDFNLDLVSVSKKDSGASPRITSISLCTPGCKTGALMGCNMKTATCHCSIHVSK [nisin A]
[1]
  MIC, separate experiment: about 2.5 μg/g
[1]; 15 Hr, 31° C.
  minimal inhibitory concentration estimated from graphs: 5 to 7 µg/g
[1]; [4]
  91516 ABS 610f: 1.568
  Corrected ABS 610rs: 1.106
[1]; [5]
  91516 ABS 610f: 1.531
  Corrected ABS 610rs: 1.063
[1]; [6]
  91516 ABS 610f: 1.334
  Corrected ABS 610rs: 0.868
[1]; [7]
  91516 ABS 610f: 0.911
  Corrected ABS 610rs: 0.473
[1]; [8]
  91516 ABS 610f: 0.536
  Corrected ABS 610rs: 0.116
[1]; [9]
  91516 ABS 610f: 0.403
  Corrected ABS 610rs: 0.001
[1]; [10]
  91516 ABS 610f: 0.361
  Corrected ABS 610rs: 0.001
[2]
  concentration at which precipitation began: > 400 µg/mL
[3]; tube A2, nisin A 0.33 μg/g
  Maltotriose in fermentation media: 0.312 %/brix
  ethanol in fermentation media: 0.068 %/brix
  formic acid in fermentation media: 0.263 %/brix
  fructose in fermentation media: 0.000 %/brix
  glucose in fermentation media: 23.122 %/brix
  glycerol in fermentation media: 0.292 %/brix
  lactic acid in fermentation media: 6.884 %/brix
  maltose in fermentation media: 0.581 %/brix
  acetic acid in fermentation media: 7.967 %/brix
[3]; tube A4, nisin A 1.38 μg/g
  Maltotriose in fermentation media: 0.298 %/brix
  ethanol in fermentation media: 0.062 %/brix
  formic acid in fermentation media: 0.282 %/brix
  fructose in fermentation media: 0.000 %/brix
  glucose in fermentation media: 24.138 %/brix
  glycerol in fermentation media: 0.319 %/brix
  lactic acid in fermentation media: 5.496 %/brix
  maltose in fermentation media: 0.815 %/brix
  acetic acid in fermentation media: 8.219 %/brix
[3]; tube A5, nisin A 3.08 μg/g
  Maltotriose in fermentation media: 0.276 %/brix
  ethanol in fermentation media: 0.094 %/brix
  formic acid in fermentation media: 0.407 %/brix
  fructose in fermentation media: 0.000 %/brix
  glucose in fermentation media: 24.698 %/brix
  glycerol in fermentation media: 0.350 %/brix
  lactic acid in fermentation media: 4.672 %/brix
  maltose in fermentation media: 0.598 %/brix
  acetic acid in fermentation media: 8.296 %/brix
[3]; tube A6, nisin A 5.97 μg/g
  Maltotriose in fermentation media: 0.288 %/brix
  ethanol in fermentation media: 0.057 %/brix
  formic acid in fermentation media: 0.280 %/brix
  fructose in fermentation media: 0.000 %/brix
  glucose in fermentation media: 25.304 %/brix
  glycerol in fermentation media: 0.328 %/brix
  lactic acid in fermentation media: 2.707 %/brix
  maltose in fermentation media: 0.941 %/brix
  acetic acid in fermentation media: 8.143 %/brix
[3]; tube A7, nisin A 8.86 μg/g
  Maltotriose in fermentation media: 0.419 %/brix
  ethanol in fermentation media: 0.055 %/brix
  formic acid in fermentation media: 0.234 %/brix
  fructose in fermentation media: 0.000 %/brix
  glucose in fermentation media: 25.444 %/brix
  glycerol in fermentation media: 0.299 %/brix
  lactic acid in fermentation media: 1.521 %/brix
  maltose in fermentation media: 0.775 %/brix
  acetic acid in fermentation media: 7.899 %/brix
[3]; tube A8, nisin A 11.87 μg/g
  Maltotriose in fermentation media: 0.305 %/brix
  ethanol in fermentation media: 0.071 %/brix
  formic acid in fermentation media: 0.233 %/brix
  fructose in fermentation media: 0.000 %/brix
  glucose in fermentation media: 25.537 %/brix
  glycerol in fermentation media: 0.301 %/brix
  lactic acid in fermentation media: 1.579 %/brix
  maltose in fermentation media: 0.739 %/brix
  acetic acid in fermentation media: 8.091 %/brix
